Source: paper PMC4804716 (The FEBS journal, 2015)

Assays:
[1] = Cyclic voltammetry of menadione derivatives; assay type: physicochemical; conditions: DMSO
S. mansoni worms = assay: Antischistosomal activity against adult, ex vivo worms; assay type: cell-based, Schistosoma mansoni
[2] = target: T1, Schistosoma mansoni thioredoxin glutathione reductase (SmTGR) (Schistosoma mansoni, UniProt Q962Y6); assay: SmTGR DTNB assay; assay type: biochemical
T1 sequence (Q962Y6 1-598): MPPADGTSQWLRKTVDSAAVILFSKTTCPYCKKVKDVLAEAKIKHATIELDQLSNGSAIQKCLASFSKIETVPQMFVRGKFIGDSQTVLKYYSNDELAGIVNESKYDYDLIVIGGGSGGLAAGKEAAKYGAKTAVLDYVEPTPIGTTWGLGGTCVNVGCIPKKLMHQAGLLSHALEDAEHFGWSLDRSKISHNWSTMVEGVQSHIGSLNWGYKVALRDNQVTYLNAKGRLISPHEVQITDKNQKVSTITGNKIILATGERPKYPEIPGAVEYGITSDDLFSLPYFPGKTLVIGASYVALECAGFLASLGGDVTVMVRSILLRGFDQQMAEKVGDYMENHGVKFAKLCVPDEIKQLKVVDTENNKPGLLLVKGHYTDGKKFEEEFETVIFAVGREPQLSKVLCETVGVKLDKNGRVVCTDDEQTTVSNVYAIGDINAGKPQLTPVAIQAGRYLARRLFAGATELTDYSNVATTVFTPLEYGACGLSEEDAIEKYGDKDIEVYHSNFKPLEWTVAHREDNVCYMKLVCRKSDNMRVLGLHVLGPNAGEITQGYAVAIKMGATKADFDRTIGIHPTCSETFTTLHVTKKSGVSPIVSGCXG

[3] = Cytotoxicity against human MRC-5 cells; assay type: cell-based; conditions: human lung MRC-5 fibroblasts (MRC-5SV2 cells)
[4] = target: T1, Schistosoma mansoni thioredoxin glutathione reductase (SmTGR); assay: Time-dependent inactivation of SmTGR; conditions: high inhibitor concentrations, 5 min incubation without NADPH
[5] = pKa estimation by absorption spectrophotometry; assay type: physicochemical
[6] = Glutathionylation reaction kinetics; assay type: physicochemical; conditions: pH 7.5

Epa1 ([1]; 0.1 M n-Bu4NPF6, v = 200 mV s^−1, reference KCl(3 M)/Ag/AgCl, first wave): −0.215 V
Ipc1/Ipa1 ([1]; 0.1 M n-Bu4NPF6, v = 200 mV s^−1, first wave): 1.67
E^1½ ([1]; E½ = (Epc+Epa)/2, 0.1 M n-Bu4NPF6, reference KCl(3 M)/Ag/AgCl, first wave): −0.271 V
ΔEp (first wave) ([1]; ΔE = Epa-Epc, 0.1 M n-Bu4NPF6, v = 200 mV s^−1): 111 mV
IC50 [2]: 0.046 µM
SmTGR inactivation in the absence of NADPH [4]: resulted in inactivation
pKa [5]: ~7.1
SMILES: COc1ccc(OCC2=C(C(F)F)C(=O)c3ccccc3C2=O)cc1C(F)(F)F [Compound 9, 2-(difluoromethyl)-3-((4-methoxy-3-(trifluoromethyl)phenoxy)methyl)naphthalene-1,4-dione]
antischistosomal activity against cultured ex vivo worms (S. mansoni worms; 50 μM compound alone): inactive
killing of worms whether RBCs were present or not (S. mansoni worms; 50 μM, with or without human red blood cells (10 μl/well)): no effect on killing the worms
IC50 at 3 days [3]: 11.2 µM
decrease of the k2 values compared to the difluoromenadione itself [6]: ~10 fold
